Results as given in patent US20130143929A1, “FUNGICIDAL IMIDAZOLES” (EI DU PONT DE NEMOURS AND COMPANY, priority 2010, published 2013).
Marks after values point to notes of the source that are not given here.

Assays:
Type in all cases: in vivo
[1] = system: Puccinia recondite f. sp. tritici (the causal agent of wheat leaf rust); assay: Test A: wheat leaf rust, preventive spray on wheat seedlings, visual disease rating; conditions: for Test A rating (100 = 100% disease control, 0 = no disease control relative to the controls): wheat leaf rust, preventive spray on wheat seedlings; for Test A rating (% disease control, wheat leaf rust): 100 = 100% disease control
In short: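 Wheat seedlings were sprayed to run-off with compound suspended in acetone/water containing 250 ppm Trem 014 (200 ppm ≈ 800 g/ha; some at 40 ppm). Puccinia recondite spores were inoculated the next day. Plants were held 24 h saturated at 20° C, then 7 days at 20° C, and disease control was rated visually on a 0–100 scale against controls.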

[2] = system: Septoria tritici (the causal agent of wheat leaf blotch); assay: Test B: wheat leaf blotch, preventive spray on wheat seedlings, visual disease rating; conditions: for Test B rating (100 = 100% disease control, 0 = no disease control relative to the controls): wheat leaf blotch, preventive spray on wheat seedlings; for Test B rating (% disease control, wheat leaf blotch): 100 = 100% disease control
In short: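 Wheat seedlings sprayed to run-off with compound suspension (acetone/water with 250 ppm Trem 014; 200 ppm ≈ 800 g/ha, some at 40 ppm), inoculated next day with Septoria tritici spores. 48 h saturated humidity at 24 °C, then 19 days at 20 °C; visual rating, 100 = full control.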

[3] = system: Botrytis cinerea (the causal agent of tomato Botrytis); assay: Test C: tomato Botrytis, preventive spray on tomato seedlings, visual disease rating; conditions: for Test C rating (100 = 100% disease control, 0 = no disease control relative to the controls): tomato Botrytis, preventive spray on tomato seedlings; for Test C rating (% disease control, tomato Botrytis): 100 = 100% disease control
In short: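 Test suspension (acetone/water with 250 ppm Trem 014; 200 ppm equivalent to 800 g/ha) sprayed to run-off on tomato seedlings; B. cinerea spores inoculated next day. After 48 h saturated humidity at 20° C then 3 days at 24° C, disease rated visually as % control relative to untreated controls (0–100).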

[4] = system: Blumeria graminis f. sp. tritici (also known as Erysiphe graminis f. sp. tritici, the causal agent of wheat powdery mildew); assay: Test D: wheat powdery mildew, preventive spray on wheat seedlings, visual disease rating; conditions: for Test D rating (100 = 100% disease control, 0 = no disease control relative to the controls): wheat powdery mildew, preventive spray on wheat seedlings; for Test D rating (% disease control, wheat powdery mildew): no asterisk: standard test suspension concentration, 100 = 100% disease control, 0 = no control relative to controls
In short: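 Compound suspended in acetone/water (50/50) with 250 ppm Trem 014 and sprayed to run-off on wheat seedlings (200 ppm ≈ 800 g/ha), then inoculated next day with spore dust. Disease rated visually after 8 days at 20 °C as % control relative to untreated plants (0-100).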

[5] = no asterisk (standard test suspension concentration, not 40 ppm)
[6] = asterisk: 40 ppm test suspension
[7] = no asterisk: standard test suspension concentration, 0 = no control relative to controls
[8] = asterisk: 40 ppm test suspension, 0 = no control

SMILES | Test A rating (100 = 100% disease control, 0 = no disease control relative to the controls) [1, 6] | Test B rating (100 = 100% disease control, 0 = no disease control relative to the controls) [2, 6] | Test C rating (100 = 100% disease control, 0 = no disease control relative to the controls) [3, 6] | Test D rating (100 = 100% disease control, 0 = no disease control relative to the controls) [4, 6] | other results
Cc1nc(Br)c(C(O)c2c(F)cc(Cl)cc2F)n1-c1ccc(F)cc1Cl (stereo not drawn) [compound 362] |  |  |  |  | Test A rating (100 = 100% disease control, 0 = no disease control relative to the controls) [1, 5]: 99%; Test B rating (100 = 100% disease control, 0 = no disease control relative to the controls) [2, 5]: 85%; Test C rating (100 = 100% disease control, 0 = no disease control relative to the controls) [3, 5]: 0%; Test D rating (100 = 100% disease control, 0 = no disease control relative to the controls) [4, 5]: 0%
Cc1cccc(F)c1-n1c(C)nc(Br)c1C(O)c1ccc(F)cc1F (stereo not drawn) [compound 341] | 94* % | 100* % | 86* % | 43* % | 
COc1ccc(C(O)c2c(Br)nc(C)n2-c2ccc(F)cc2Br)c(Cl)c1 (stereo not drawn) [compound 324] | 100* % | 94* % | 80* % | 69* % | 
Cc1cccc(Br)c1-n1c(C)nc(Cl)c1C(O)c1ccc(F)cc1F (stereo not drawn) [compound 338] | 94* % | 93* % | 70* % | 56* % | 
Cc1cccc(F)c1-n1c(C)nc(Cl)c1C(O)c1ccc(F)cc1Cl (stereo not drawn) [compound 340] | 99* % | 100* % | 96* % | 89* % | 
Cc1nc(Cl)n(-c2ccc(F)cc2Cl)c1C(O)c1c(F)cc(F)cc1F (racemic) [compound 30] |  |  |  |  | Test A rating (100 = 100% disease control, 0 = no disease control relative to the controls) [1, 5]: 100%; Test B rating (100 = 100% disease control, 0 = no disease control relative to the controls) [2, 5]: 100%; Test C rating (100 = 100% disease control, 0 = no disease control relative to the controls) [3, 5]: 100%; Test D rating (100 = 100% disease control, 0 = no disease control relative to the controls) [4, 5]: 100%
Cc1nc(Br)c(C(O)c2ccc(Cl)cc2)n1-c1ccc(F)cc1F (stereo not drawn) [compound 380] |  |  |  |  | Test A rating (% disease control, wheat leaf rust) [1, 7]: 98%; Test B rating (% disease control, wheat leaf blotch) [2, 7]: 100%; Test C rating (% disease control, tomato Botrytis) [3, 7]: 100%; Test D rating (% disease control, wheat powdery mildew) [4]: 0%
Cc1nc(Br)c(C(O)c2ccc(F)cc2F)n1-c1c(F)cccc1Br (stereo not drawn) [compound 393] |  |  |  |  | Test A rating (% disease control, wheat leaf rust) [1, 7]: 100%; Test B rating (% disease control, wheat leaf blotch) [2, 7]: 100%; Test C rating (% disease control, tomato Botrytis) [3, 7]: 100%; Test D rating (% disease control, wheat powdery mildew) [4]: 97%
OC(c1ccc(F)cc1F)c1c(Br)nc(Br)n1-c1c(F)cc(Cl)cc1F (stereo not drawn) [compound 123] | 98* % | 100* % | 95* % | 0* % | 
COc1cc(F)c(C(O)c2c(Cl)ncn2-c2ccc(F)cc2Cl)c(F)c1 (racemic) [compound 234] | 99* % | 79* % | 26* % | 43* % | 
COc1ccc(C(O)c2cnc(CCl)n2-c2c(F)cc(F)cc2Br)c(Cl)c1 (stereo not drawn) [compound 352] |  |  |  |  | Test A rating (100 = 100% disease control, 0 = no disease control relative to the controls) [1, 5]: 100%; Test B rating (100 = 100% disease control, 0 = no disease control relative to the controls) [2, 5]: 100%; Test C rating (100 = 100% disease control, 0 = no disease control relative to the controls) [3, 5]: 99%; Test D rating (100 = 100% disease control, 0 = no disease control relative to the controls) [4, 5]: 95%
Cc1cc(C#N)ccc1C(O)c1c(Br)nc(C)n1-c1c(F)cccc1F (stereo not drawn) [compound 165] | 80* % | 100* % | 8* % | 13* % | 
COc1cc(F)c(C(O)c2c(Cl)nc(C)n2-c2ccc(F)cc2Cl)c(F)c1 (stereo not drawn) [compound 153] |  |  | 99* % |  | Test A rating (100 = 100% disease control, 0 = no disease control relative to the controls) [1, 5]: 100%; Test B rating (100 = 100% disease control, 0 = no disease control relative to the controls) [2, 5]: 100%; Test D rating (100 = 100% disease control, 0 = no disease control relative to the controls) [4, 5]: 94%
Cc1nc(Br)c(C(O)c2ccc(F)cc2Cl)n1-c1c(F)cc(F)cc1F (stereo not drawn) [Compound 168, 4-bromo-α-(2-chloro-4-fluorophenyl)-2-methyl-1-(2,4,6-trifluorophenyl)-1H-imidazole-5-methanol] | 100* % | 100* % | 99* % | 56* % | 
Cc1nc(Cl)c(C(O)c2ccc(F)cc2Cl)n1-c1c(F)cc(Br)cc1F (stereo not drawn) [compound 76] | 99* % | 100* % | 0* % | 0* % | 
Cc1nc(Cl)c(C(O)c2ccc(F)cc2F)n1-c1c(F)cccc1Cl (stereo not drawn) [compound 389] |  |  |  |  | Test A rating (% disease control, wheat leaf rust) [1, 8]: 100* %; Test B rating (% disease control, wheat leaf blotch) [2, 8]: 100* %; Test C rating (% disease control, tomato Botrytis) [3, 8]: 100* %; Test D rating (% disease control, wheat powdery mildew) [4]: 98%
COc1ccc(C(O)c2cnc(C)n2-c2ccc(F)cc2F)c(Cl)c1 (racemic) [compound 282] | 92* % | 63* % | 0* % | 0* % | 
Cc1nc(Br)c(C(O)c2ccc(F)cc2Cl)n1-c1c(F)cc(Cl)cc1F (stereo not drawn) [compound 116] | 99* % | 100* % | 0* % | 0* % | 
COc1ccc(C(O)c2c(Br)nc(C)n2-c2c(F)cccc2Cl)c(C)c1 (racemic) [compound 224] | 100* % | 100* % | 100* % | 100* % | 
Cc1ncc(C(O)c2cccnc2F)n1-c1c(F)cc(F)cc1F (stereo not drawn) [compound 413] |  |  |  |  | Test A rating (% disease control, wheat leaf rust) [1, 7]: 88%; Test B rating (% disease control, wheat leaf blotch) [2, 7]: 98%; Test C rating (% disease control, tomato Botrytis) [3, 7]: 0%; Test D rating (% disease control, wheat powdery mildew) [4]: 0%
COc1ccc(C(O)c2cnc(C)n2-c2ccc(F)cc2Cl)c(F)c1 (racemic) [compound 300] | 95* % | 95* % | 0* % | 0* % | 
Cc1cc(F)ccc1C(O)c1c(Br)nc(C)n1-c1c(F)cccc1F (stereo not drawn) [compound 88] |  |  |  |  | Test A rating (100 = 100% disease control, 0 = no disease control relative to the controls) [1, 5]: 99%; Test B rating (100 = 100% disease control, 0 = no disease control relative to the controls) [2, 5]: 100%; Test C rating (100 = 100% disease control, 0 = no disease control relative to the controls) [3, 5]: 96%; Test D rating (100 = 100% disease control, 0 = no disease control relative to the controls) [4, 5]: 90%
Cc1nc(Br)c(C(O)c2c(Cl)cccc2Cl)n1-c1c(F)cccc1F (stereo not drawn) [compound 194] | 99* % | 100* % | 77* % | 0* % | 
COc1ccc(C(O)c2c(C)nc(Cl)n2-c2c(F)cccc2Cl)c(F)c1 (stereo not drawn) [compound 210] |  | 100* % | 100* % | 99* % | Test A rating (100 = 100% disease control, 0 = no disease control relative to the controls) [1, 5]: 100%
